Assay results: ChEMBL document CHEMBL4665622, “Repurposing ibuprofen to control Staphylococcus aureus biofilms” (2019)
≈ marks a conversion by molar mass, not a printed value.

Key:
Cell membrane [1] = experiment: Effect on surface tension of Staphylococcus aureus CECT 976 assessed as electron acceptor component at 0.5 times of MIC incubated for 1 hr (reference value: 0.5 +/- 0.1 mJ/m2); assay type: subcellular
Cell membrane [2] = experiment: Effect on surface tension of Staphylococcus aureus CECT 976 assessed as electron acceptor component at 0.25 times of MIC incubated for 1 hr (reference value: 0.5 +/- 0.1 mJ/m2); assay type: subcellular
Cell membrane [3] = experiment: Effect on surface tension of Staphylococcus aureus CECT 976 assessed as Lewis acid-base at MIC incubated for 1 hr (reference value: 10.5 +/- 1.3 mJ/m2); assay type: subcellular
Cell membrane [4] = experiment: Effect on surface tension of Staphylococcus aureus CECT 976 assessed as Lewis acid-base at 0.5 times of MIC incubated for 1 hr (reference value: 10.5 +/- 1.3 mJ/m2); assay type: subcellular
Cell membrane [5] = experiment: Effect on surface tension of Staphylococcus aureus CECT 976 assessed as Lewis acid-base at 0.25 times of MIC incubated for 1 hr (reference value: 10.5 +/- 1.3 mJ/m2); assay type: subcellular
Cell membrane [6] = experiment: Effect on surface tension of Staphylococcus aureus CECT 976 assessed as Lifshitz-van der Waals at MIC incubated for 1 hr (reference value: 40.5 +/- 0.0 mJ/m2); assay type: subcellular
Cell membrane [7] = experiment: Disruption of cytoplasmic membrane integrity in Staphylococcus aureus CECT 976 assessed as potassium ion release at MBC incubated for 1 hr by flame emission and atomic absorption spectroscopy (reference value: 0 mg/L); assay type: subcellular
Cell membrane [8] = experiment: Disruption of cytoplasmic membrane integrity in Staphylococcus aureus CECT 976 assessed as potassium ion release at MIC incubated for 1 hr by flame emission and atomic absorption spectroscopy (reference value: 0 mg/L); assay type: subcellular
Cell membrane [9] = experiment: Disruption of cytoplasmic membrane integrity in Staphylococcus aureus CECT 976 assessed as potassium ion release at 0.5 times of MIC incubated for 1 hr by flame emission and atomic absorption spectroscopy (reference value: 0 mg/L); assay type: subcellular
Cell membrane [10] = experiment: Disruption of cytoplasmic membrane integrity in Staphylococcus aureus CECT 976 assessed as potassium ion release at 0.25 times of MIC incubated for 1 hr by flame emission and atomic absorption spectroscopy (reference value: 0 mg/L); assay type: subcellular
Cell membrane [11] = experiment: Destabilization of cytoplasmic membrane integrity in Staphylococcus aureus CECT 976 at MIC incubated for 1 hr by epifluorescence microscope analysis (reference value: 10.6 %); assay type: subcellular
Cell membrane [12] = experiment: Destabilization of cytoplasmic membrane integrity in Staphylococcus aureus CECT 976 at 0.5 times of MIC incubated for 1 hr by epifluorescence microscope analysis (reference value: 10.6 %); assay type: subcellular
Cell membrane [13] = experiment: Destabilization of cytoplasmic membrane integrity in Staphylococcus aureus CECT 976 at 0.25 times of MIC incubated for 1 hr by epifluorescence microscope analysis (reference value: 10.6 %); assay type: subcellular
Staphylococcus aureus [14] = experiment: Bactericidal activity against Staphylococcus aureus XU212 assessed as reduction in bacterial growth incubated for 24 hrs by broth microdilution method; assay type: functional
Staphylococcus aureus [15] = experiment: Bactericidal activity against Staphylococcus aureus SA1199B assessed as reduction in bacterial growth incubated for 24 hrs by broth microdilution method; assay type: functional
Staphylococcus aureus [16] = experiment: Bactericidal activity against Staphylococcus aureus RN4220 assessed as reduction in bacterial growth incubated for 24 hrs by broth microdilution method; assay type: functional
Staphylococcus aureus [17] = experiment: Bactericidal activity against Staphylococcus aureus CECT 976 incubated for 24 hrs by broth microdilution method; assay type: functional
[18] = Antibacterial activity against Paracoccus yeei assessed as reduction in bacterial growth at pH 5 incubated for 24 hrs by broth microdilution method; assay type: functional
Staphylococcus aureus [19] = experiment: Antibacterial activity against Staphylococcus aureus assessed as reduction in bacterial growth incubated for 24 hrs by broth microdilution method; assay type: functional
Staphylococcus aureus [20] = experiment: Antibacterial activity against Staphylococcus aureus assessed as reduction in bacterial growth at pH 5 incubated for 24 hrs by broth microdilution method; assay type: functional
Staphylococcus aureus [21] = experiment: Antibacterial activity against Staphylococcus aureus assessed as reduction in bacterial growth at pH 6 incubated for 24 hrs by broth microdilution method; assay type: functional
Staphylococcus aureus [22] = experiment: Antibacterial activity against Staphylococcus aureus assessed as reduction in bacterial growth at pH 7 incubated for 24 hrs by broth microdilution method; assay type: functional
Staphylococcus aureus [23] = experiment: Antibacterial activity against Staphylococcus aureus XU212 assessed as reduction in bacterial growth incubated for 24 hrs by broth microdilution method; assay type: functional
Staphylococcus aureus [24] = experiment: Antibacterial activity against Staphylococcus aureus SA1199B assessed as reduction in bacterial growth incubated for 24 hrs by broth microdilution method; assay type: functional
Staphylococcus aureus [25] = experiment: Antibacterial activity against Staphylococcus aureus RN4220 assessed as reduction in bacterial growth incubated for 24 hrs by broth microdilution method; assay type: functional
Staphylococcus aureus [26] = experiment: Antibacterial activity against Staphylococcus aureus CECT 976 assessed as reduction in bacterial growth incubated for 24 hrs by broth microdilution method; assay type: functional
Streptococcus pneumoniae = experiment: Inhibition of biofilm formation in Streptococcus pneumoniae incubated for 24 hrs by crystal violet staining based assay relative to control; assay type: functional
Escherichia coli = experiment: Inhibition of biofilm formation in Escherichia coli incubated for 24 hrs by crystal violet staining based assay relative to control; assay type: functional
Staphylococcus aureus [27] = experiment: Inhibition of cell adhesion in Staphylococcus aureus CECT 976 assessed as decrease in CFU at 5 times of MIC incubated upto 24 hrs relative to control; assay type: functional; settings: time hrs <=24
Cell membrane [28] = experiment: Effect on surface tension of Staphylococcus aureus CECT 976 assessed as Lifshitz-van der Waals at 0.25 times of MIC incubated for 1 hr (reference value: 40.5 +/- 0.0 mJ/m2); assay type: subcellular
Cell membrane [29] = experiment: Effect on surface tension of Staphylococcus aureus CECT 976 assessed as Lifshitz-van der Waals at 0.5 times of MIC incubated for 1 hr (reference value: 40.5 +/- 0.0 mJ/m2); assay type: subcellular

CC(C)Cc1ccc(C(C)C(=O)O)cc1 (stereo unspecified) [IBUPROFEN]
Activity (Cell membrane [1]): 1.1 mJ/m2 | Activity (Cell membrane [2]): 0.7 mJ/m2 | Activity (Cell membrane [3]): 12.5 mJ/m2 | Activity (Cell membrane [4]): 13.8 mJ/m2 | Activity (Cell membrane [5]): 11.7 mJ/m2 | Activity (Cell membrane [6]): 38 mJ/m2 | Activity (Cell membrane [7]): 0.54 mg/L | Activity (Cell membrane [8]): 0.49 mg/L | Activity (Cell membrane [9]): 0.51 mg/L | Activity (Cell membrane [10]): 0.51 mg/L | Activity (Cell membrane [11]): 97.9% | Activity (Cell membrane [12]): 99.8% | Activity (Cell membrane [13]): 99.1% | MBC (Staphylococcus aureus [14]): 1600 µg/mL (≈ 7.76 mM) | MBC (Staphylococcus aureus [15]): 1600 µg/mL (≈ 7.76 mM) | MBC (Staphylococcus aureus [16]): > 2000 µg/mL | MBC (Staphylococcus aureus [17]): 1400 µg/mL (≈ 6.79 mM) | MIC [18]: 1250 µg/mL (≈ 6.06 mM) | MIC (Staphylococcus aureus [19]): 1250 µg/mL (≈ 6.06 mM) | MIC (Staphylococcus aureus [20]): 40 µg/mL (≈ 0.194 mM) | MIC (Staphylococcus aureus [21]): 350 µg/mL (≈ 1.7 mM) | MIC (Staphylococcus aureus [22]): > 600 µg/mL | MIC (Staphylococcus aureus [23]): 1600 µg/mL (≈ 7.76 mM) | MIC (Staphylococcus aureus [24]): 1000 µg/mL (≈ 4.85 mM) | MIC (Staphylococcus aureus [25]): 2000 µg/mL (≈ 9.7 mM) | MIC (Staphylococcus aureus [26]): 500 µg/mL (≈ 2.42 mM) | inhibition (INH) (Streptococcus pneumoniae): 37% | inhibition (INH) (Escherichia coli): 37% | inhibition (INH) (Staphylococcus aureus [27]): 100% | Activity (Cell membrane [28]): 39.5 mJ/m2 | Activity (Cell membrane [29]): 37.3 mJ/m2
